# Measurements: paper PMC8961646, “Fibroblast Activation Protein Specific Optical Imaging in Non-Small Cell Lung Cancer” (Frontiers in Oncology, 2022)
# Non-standard residues stand in square brackets, D forms with d. Residues, ends and D or L forms follow the SMILES beside them. *: point of attachment. 5FAM = O=C1OC2(c3ccc(O)cc3Oc3cc(O)ccc32)c2ccc(C(=O)*)cc21; MethylRed = CN(C)c1ccc(/N=N/c2ccccc2C(=O)*)cc1; AEEA = NCCOCCOCC(=O)O
# Columns and labels:
# [1] = molecular target: rhDPPIV (Homo sapiens, UniProt P27487); test: Probe cleavage by recombinant human DPP-IV (exopeptidase activity); settings: probe 5 µM, rhDPPIV 0.1 µg/ml, TRIS buffer pH 7.5, read 480/530 nm, n=3 run in triplicate
# Experimental: Recombinant human enzymes [rhFAP (R&D Systems), rhPREP (R&D Systems) and rhDPPIV (Biolegend)] were stored in stocks at -70°C and diluted as required to be used at final concentration of 0.1 µg/ml. Enzymes were aliquoted upon receipt from the supplier and new stocks made from a fresh aliquot as required.
# Assays were undertaken in triplicate in blackened 384 well plates on ice prior to spectral reads. […] All wells contained a final volume of 20 µl to include buffers, inhibitors (if used), substrates and recombinant human enzymes (at a concentration of 0.1 µg/ml unless otherwise stated). […] Plates were sealed with an optical plate sealer (Biolegend) and were read in a preheated spectrophotometer (Synergy Biotek) in monochromator-based mode at 380/460 nm for control substrates and 480/530 nm for synthesised FAP probes.
# [2] = molecular target: MMP 13 (Homo sapiens, UniProt P45452); test: Probe assessment against recombinant MMP panel; type: biochemical; settings: recombinant enzyme, n=2 run in triplicate
# [3] = molecular target: T1, rhPREP (Homo sapiens, UniProt P48147); test: Probe cleavage by recombinant human PREP (fluorescence plate assay, MALDI confirmation); type: biochemical
# T1 construct: purchased R&D Systems
# T1 sequence (P48147 1-710): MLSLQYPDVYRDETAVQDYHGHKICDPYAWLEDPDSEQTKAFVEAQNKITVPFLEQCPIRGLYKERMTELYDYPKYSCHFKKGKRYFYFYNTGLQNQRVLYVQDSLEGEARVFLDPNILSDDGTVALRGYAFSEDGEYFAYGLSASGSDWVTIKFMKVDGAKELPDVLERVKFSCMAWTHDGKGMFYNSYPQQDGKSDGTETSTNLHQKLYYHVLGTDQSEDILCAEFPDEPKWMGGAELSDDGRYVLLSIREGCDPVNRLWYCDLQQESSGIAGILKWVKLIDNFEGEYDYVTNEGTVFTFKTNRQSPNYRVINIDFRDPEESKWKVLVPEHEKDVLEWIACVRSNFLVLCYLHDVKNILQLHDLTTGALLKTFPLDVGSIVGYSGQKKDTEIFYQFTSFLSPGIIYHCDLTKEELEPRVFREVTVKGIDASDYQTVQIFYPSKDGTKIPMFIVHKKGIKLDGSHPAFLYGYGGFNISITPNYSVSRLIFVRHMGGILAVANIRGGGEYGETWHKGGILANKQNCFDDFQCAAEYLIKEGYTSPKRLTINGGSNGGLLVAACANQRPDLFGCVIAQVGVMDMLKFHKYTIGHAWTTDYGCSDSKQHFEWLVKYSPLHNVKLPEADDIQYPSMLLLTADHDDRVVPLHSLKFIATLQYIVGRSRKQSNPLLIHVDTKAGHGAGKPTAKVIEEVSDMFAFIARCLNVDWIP
# [4] = Probe stability in activated neutrophil lysate
# Experimental: Assays were undertaken in triplicate in blackened 384 well plates on ice prior to spectral reads.
# Neutrophils were isolated from peripheral blood of healthy volunteers by discontinuous percoll gradients, as previously described ([29]). Cells were resuspended in PBS (at 10 million cells/ml) and stimulated with 1 µM calcium ionophore, then lysed with 1% Triton-X-100. Lysate was used at 1:1 dilution for experiments, replacing recombinant enzymes in the assay as described above, with PBS as the buffer.
# MALDI spectra were acquired on a Bruker Ultraflextreme MALDI-TOF MS. Neutrophil lysate experiment samples were prepared by plating 1 µl of the sample with 1 µl of the matrix solution sinapic acid (10 mg/mL) in H2O/CH3CN/TFA (70/30/0.1).
# [5] = tested on: FAP+ CAFs from NSCLC patient samples; test: Probe cleavage on cancer associated fibroblasts (CAFs); type: cell-based, human; settings: FAP3 5 µM, confluent CAF monolayer in 96 well plate, DPBS, read 480/530 nm for one hour, n=3 run in triplicate
# Experimental: CAFs were isolated from NSCLC patient samples as previously described ([28]). Briefly, tissue samples were minced with forceps and incubated for an hour in prewarmed RPMI media (Gibco) containing collagenase IV [2 mg/ml] (Sigma) and DNase [0.2 mg/ml] (Sigma). Samples were spun at 350 g for 5 minutes and red blood cells were lysed from samples using RBC lysis buffer (BioLegend) in 10 ml for 10 minutes. Following a further spin at 350 g for 5 minutes, cells were seeded in culture flasks in DMEM containing 10% FCS, 1% Penicillin-Streptomycin, 1% L-Glutamine and 10% Insulin Transferrin Selenium (ITS). 24 hours after seeding, non-adherent cells were washed from the flasks. Cells were maintained by standard cell culture methods and by passage 2, the predominant cell type was CAFs, assessed by flow cytometry markers and morphology. CAFs between passage 4-9 were used to assess FAP probes and confirmed to be FAP^hi by flow cytometry.
# CAFs were seeded into 96 well plates in a 100 µl media (complete DMEM as described above) at a density of 1x10^5 cells/ml to form a confluent monolayer within 24 hours. […] Immediately after adding imaging probes, the plate was transferred to the prewarmed spectrophotometer as above and read at 480/530 nm for one hour.
# Chain of rhDPPIV (P27487 29-766 limits assumed): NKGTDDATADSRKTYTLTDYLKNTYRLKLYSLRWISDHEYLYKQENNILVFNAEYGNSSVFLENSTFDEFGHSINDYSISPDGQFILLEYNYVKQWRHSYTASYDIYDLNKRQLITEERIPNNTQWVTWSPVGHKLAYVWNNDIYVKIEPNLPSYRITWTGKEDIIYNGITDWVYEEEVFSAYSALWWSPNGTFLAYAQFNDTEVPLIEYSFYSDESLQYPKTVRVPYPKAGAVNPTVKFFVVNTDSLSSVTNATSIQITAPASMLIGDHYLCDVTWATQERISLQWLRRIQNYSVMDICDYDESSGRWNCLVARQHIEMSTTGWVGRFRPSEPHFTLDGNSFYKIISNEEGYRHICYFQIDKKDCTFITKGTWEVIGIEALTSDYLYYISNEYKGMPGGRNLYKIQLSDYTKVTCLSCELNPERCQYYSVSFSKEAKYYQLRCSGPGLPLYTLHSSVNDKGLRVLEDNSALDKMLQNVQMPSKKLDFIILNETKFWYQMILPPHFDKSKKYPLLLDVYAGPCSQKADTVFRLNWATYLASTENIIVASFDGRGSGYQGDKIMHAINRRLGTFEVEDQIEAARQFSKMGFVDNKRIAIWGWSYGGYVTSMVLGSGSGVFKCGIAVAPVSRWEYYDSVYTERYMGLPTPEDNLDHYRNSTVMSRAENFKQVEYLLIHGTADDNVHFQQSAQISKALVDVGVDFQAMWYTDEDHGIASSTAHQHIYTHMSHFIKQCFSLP
compound,measurement,setting,value
CC(C)[C@H](NC(=O)[C@@H](N)CCCCNC(=O)c1ccccc1/N=N/c1ccc(N(C)C)cc1)C(=O)N[C@H](CO)C(=O)N1CCC[C@H]1C(=O)N[C@@H](CC(N)=O)C(=O)N[C@@H](CCC(N)=O)C(=O)NCC(=O)N[C@@H](CCCCNC(=O)c1ccc2c(c1)C(=O)OC21c2ccc(O)cc2Oc2cc(O)ccc21)C(=O)NCCOCCOCC(=O)N[C@H](CCCCN)C(=O)NCCOCCOCC(=O)N[C@H](CCCCN)C(=O)NCCOCCOCC(=O)N[C@H](CCCCN)C(N)=O [FAP3] (H-K(MethylRed)V[dS]PNQGK(5FAM)[AEEA][dK][AEEA][dK][AEEA][dK]-NH2),"Cleavage by DPP-IV (exopeptidase activity, fluorescence signal)",[1],no cleavage
same,Activity with MMP 13,[2],no activity
same,Cleavage by rhPREP by MALDI,[3]; MALDI-TOF read-out,no cleavage
same,Cleavage by rhPREP (fluorescence signal),"[3]; probe 5 µM, rhPREP 0.1 µg/ml, TRIS buffer pH 7.5, read 480/530 nm, n=3 run in triplicate",no rhPREP cleavage
same,Stability in activated neutrophil lysate (MALDI-TOF),"[4]; activated human neutrophil lysate, MALDI-TOF read-out, sinapic acid matrix",remained intact
same,Stability in activated neutrophil lysate (fluorescence),"[4]; human neutrophils 10 million cells/ml, 1 µM calcium ionophore, lysed with 1% Triton-X-100, lysate at 1:1 dilution, PBS, fluorescence 480/530 nm, n=2 run in triplicate",stable
same,Cleavage by FAP+ CAFs (fluorescence),[5],cleaved
